The experiment deals with KRAS G12C and cRAF (Ras-binding domain) interaction (Homo sapiens (Human), UniProt P01116, C118S/C51S/C80L/G12C). In words: Inhibition of KRAS G12C and cRAF binding (AlphaScreen). The settings on record: GMPPNP-loaded KRAS G12C, 19-20 hours incubation with compound; read-out: IC50 (Inhibition of KRAS G12C and cRAF Binding). The gist of the method: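 Compounds (DMSO) preincubated 19-20 h at room temperature, then RBD with streptavidin donor and glutathione acceptor beads added in 25 mM Hepes pH 7.4, 150 mM NaCl, 5 mM MgCl2, 0.01% Triton X-100, 2% DMSO for 60-90 min. Emission 570 nm (excitation 680 nm); IC50 by 4-parameter fit. Counter-screen used biotin-AviTag-GST instead of RBD.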
Chain of KRAS G12C and cRAF (Ras-binding domain) interaction (P01116 other isoform, or with tags, fused parts or gaps G12C/C51S/C80L/C118S): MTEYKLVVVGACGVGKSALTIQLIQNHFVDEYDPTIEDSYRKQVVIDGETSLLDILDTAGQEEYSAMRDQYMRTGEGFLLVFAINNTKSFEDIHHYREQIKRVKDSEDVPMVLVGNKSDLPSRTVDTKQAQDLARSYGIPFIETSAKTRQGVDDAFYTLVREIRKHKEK
(Alpha assays give light when donor and acceptor beads are brought close together.)
For `Cc1nccc(/C=C/C(=O)N2CC[C@@H](N(C)c3nc(OC[C@@]45CCCN4C[C@H](F)C5)nc4c(F)c(-c5cccc6ccc(F)c(Cl)c56)ncc34)C2)n1` [Example 270, (E)-1-((R)-3-((7-(8-chloro-7-fluoronaphthalen-1-yl)-8-fluoro-2-(((2R,7aS)-2-fluorotetrahydro-1H-pyrrolizin-7a(5H)-yl)methoxy)pyrido[4,3-d]pyrimidin-4-yl)(methyl)amino)pyrrolidin-1-yl)-3-(2-methylpyrimidin-4-yl)prop-2-en-1-one], the IC50 (usually the concentration needed to halve the response being measured) lay in the range of 10 to 100 nM.

For the molecule `Cc1nccc(/C=C/C(=O)N2CC[C@@H](N(C)c3nc(OC[C@@]45CCCN4C[C@H](F)C5)nc4c(F)c(-c5cccc6ccc(F)c(F)c56)ncc34)C2)n1` [Example 271, (E)-1-((R)-3-((7-(7,8-difluoronaphthalen-1-yl)-8-fluoro-2-(((2R,7aS)-2-fluorotetrahydro-1H-pyrrolizin-7a(5H)-yl)methoxy)pyrido[4,3-d]pyrimidin-4-yl)(methyl)amino)pyrrolidin-1-yl)-3-(2-methylpyrimidin-4-yl)prop-2-en-1-one], the IC50 lay in the range of 10 to 100 nM.

On to `Cc1cc(/C=C/C(=O)N2CC[C@@H](N(C)c3nc(OC[C@@]45CCCN4C[C@H](F)C5)nc4c(F)c(-c5cccc6ccc(F)c(Cl)c56)ncc34)C2)nc(C)n1` [Example 272, (E)-1-((R)-3-((7-(8-chloro-7-fluoronaphthalen-1-yl)-8-fluoro-2-(((2R,7aS)-2-fluorotetrahydro-1H-pyrrolizin-7a(5H)-yl)methoxy)pyrido[4,3-d]pyrimidin-4-yl)(methyl)amino)pyrrolidin-1-yl)-3-(2,6-dimethylpyrimidin-4-yl)prop-2-en-1-one], for which the IC50 fell in the range of 10 to 100 nM.

Take `Cc1cc(/C=C/C(=O)N2CC(CN(C)c3nc(OC[C@@]45CCCN4C[C@H](F)C5)nc4c(F)c(-c5cccc6ccc(F)c(Cl)c56)ncc34)C2)nc(C)n1` [Example 273, (E)-1-(3-(((7-(8-chloro-7-fluoronaphthalen-1-yl)-8-fluoro-2-(((2R,7aS)-2-fluorotetrahydro-1H-pyrrolizin-7a(5H)-yl)methoxy)pyrido[4,3-d]pyrimidin-4-yl)(methyl)amino)methyl)azetidin-1-yl)-3-(2,6-dimethylpyrimidin-4-yl)prop-2-en-1-one]: the IC50 is 100 to 500 nM.

`Cc1cc(/C=C/C(=O)N2CC(CN(C)c3nc(OC[C@@]45CCCN4C[C@H](F)C5)nc4c(F)c(-c5cccc6ccc(F)c(F)c56)ncc34)C2)nc(C)n1` [Example 274, (E)-1-(3-(((7-(7,8-difluoronaphthalen-1-yl)-8-fluoro-2-(((2R,7aS)-2-fluorotetrahydro-1H-pyrrolizin-7a(5H)-yl)methoxy)pyrido[4,3-d]pyrimidin-4-yl)(methyl)amino)methyl)azetidin-1-yl)-3-(2,6-dimethylpyrimidin-4-yl)prop-2-en-1-one]: the IC50 is 10 to 100 nM.

As for `Cc1cc(/C=C/C(=O)N2CC(CN(C)c3nc(OC[C@@]45CCCN4C[C@H](F)C5)nc4c(F)c(-c5cccc6cccc(Cl)c56)ncc34)C2)nc(C)n1` [Example 275, (E)-1-(3-(((7-(8-chloronaphthalen-1-yl)-8-fluoro-2-(((2R,7aS)-2-fluorohexahydro-1H-pyrrolizin-7a-yl)methoxy)pyrido[4,3-d]pyrimidin-4-yl)(methyl)amino)methyl)azetidin-1-yl)-3-(2,6-dimethylpyrimidin-4-yl)prop-2-en-1-one], the IC50 was in the range of 100 to 500 nM.

Take `CN1CC(=CC(=O)N2CC[C@@H](N(C)c3nc(OC[C@@]45CCCN4C[C@H](F)C5)nc4c(F)c(-c5cccc6cccc(Cl)c56)ncc34)C2)C1` [Example 276, 1-((R)-3-((7-(8-chloronaphthalen-1-yl)-8-fluoro-2-(((2R,7aS)-2-fluorotetrahydro-1H-pyrrolizin-7a(5H)-yl)methoxy)pyrido[4,3-d]pyrimidin-4-yl)(methyl)amino)pyrrolidin-1-yl)-2-(1-methylazetidin-3-ylidene)ethan-1-one]: the IC50 is 10 to 100 nM.
